Reference: US6831069B2, “Pyrrolo[2,3-d]pyrimidine nucleoside analogs” (priority 1999, dated 2004)
“And” between values parts separate entries of the source, which are not always exact repeats. Equal values may be shown once.

Experiments:
activated human T cells [1] = assay: MTT cell proliferation assay; assay type: cell-based; conditions: data not shown
activated human T cells [2] = assay: T cell proliferation, [3H]-thymidine incorporation; assay type: cell-based; conditions: 48 h, read-out: peak inhibition of T cell proliferation
activated human T cells [3] = assay: Analysis of cytokine mRNA (RT-PCR, Southern blot) in PMA-ION activated human T cells; assay type: cell-based
[4] = system: activated peripheral human T cells; assay: Extracellular cytokine analyses (ELISA) in PMA-ION activated peripheral human T cells; assay type: cell-based; set-up: secreted IL-4, increase over activated control / IFNγ, decrease over activated control: concentration or dose not given beside the values; conditions: for heightened IL-4 production / reduced levels of secreted IFNγ: PMA-ION; for IFNγ, decrease over activated control / secreted IL-4, increase over activated control: 48 h PMA-ION
BALB/c mice = conditions: mouse, in vivo
[5] = system: PMA/ionomycin stimulated T cell; assay: Extracellular cytokine levels (ELISA) in PMA/ionomycin activated human T cells, 0 or 10 μM nucleoside; assay type: cell-based; conditions: 48 h, 5 human donors, of activated control level
[6] = 10 μM, T cells from normal donors and RA patients
[7] = 2, 5 or 10 μM, 6 h or 24 h, PMA-ION, representative of three donors
[8] = pro-/anti-inflammatory mediator study, FIG. 18
[9] = 10 μM, 48 h, representative of five donors
[10] = 10 μM, T cells of 16 RA patients
[11] = 10 μM, T cells of 16 normal donors

N=C(N)c1cn([C@@H]2O[C@H](CO)[C@@H](O)[C@H]2O)c2nc[nH]c(=O)c12 [ICN 10776, 7-β-D-ribofuranosyl-4-oxopyrrolo-[2,3-d]pyrimidine-5-carboxamidine]
T cell proliferation (MTT) (activated human T cells [1]): dramatically inhibited T cell proliferation | inhibition at 20 µM (activated human T cells [2]): 99% | IFNγ mRNA levels (activated human T cells [3]; [6]): suppressed | IL-4 mRNA levels (activated human T cells [3]; [6]): elevated | TNFα mRNA levels (activated human T cells [3]; [6]): suppressed | IFNγ mRNA (activated human T cells [3]; [7]): concomitant decrease | IL-4 mRNA (activated human T cells [3]; [7]): increase in IL-4 mRNA | TNFα mRNA (activated human T cells [3]; [7]): concomitant decrease | IFNγ mRNA (activated human T cells [3]; [8]): suppression | IL-1β mRNA (activated human T cells [3]; [8]): suppressed | IL-2 mRNA (activated human T cells [3]; [8]): suppression | IL-4 mRNA (activated human T cells [3]; [8]): enhancement | IL-6 mRNA (activated human T cells [3]; [8]): suppressed | IL-10 mRNA (activated human T cells [3]; [8]): enhancement of IL-10 | TNFα mRNA (activated human T cells [3]; [8]): suppression | c-myc expression (activated human T cells [3]; [8]): suppression | inducible nitric oxide synthase (iNOS) expression (activated human T cells [3]; [8]): reduction | peak enhancement of PMA-ION-induced IL-4 level [4, 9]: 166% | peak enhancement of PMA-ION-induced IL-5 level [4, 9]: 77% | heightened IL-4 production [4, 10]: 192% | reduced levels of secreted IFNγ [4, 10]: 63% | heightened IL-4 production [4, 11]: 266% | reduced levels of secreted IFNγ [4, 11]: 43% | peak suppression of PMA-ION-induced IFNγ level ([4]; 20 μM, 48 h): 72% | peak suppression of PMA-ION-induced IL-2 level ([4]; 20 μM, 48 h): 62% | peak suppression of PMA-ION-induced TNFα level ([4]; 20 μM, 48 h): 78% | IFNγ, decrease over activated control ([4]; CD4+ T cells): 81% | secreted IL-4, increase over activated control ([4]; CD4+ T cells): 994% | IFNγ, decrease over activated control ([4]; CD8+ T cells): 37% | secreted IL-4, increase over activated control ([4]; CD8+ T cells): 228% | IFNγ, decrease over activated control ([4]; total T cells): 52% | secreted IL-4, increase over activated control ([4]; total T cells): 320% | IFNγ mRNA levels (BALB/c mice): substantially reduced | mean decrease in serum nitrite levels (BALB/c mice): 54% and 78% | murine IL-10 mRNA expression (BALB/c mice): greatly enhanced | enhanced activated IL-4 production [5]: 498%±83 | suppressed IFNγ [5]: 43%±4
